Here are results for 8 compounds from patent US20070259856A1, “Method for Activating Trpv4 Channel Receptors by Agonists” (priority 2004, published 2007).

Where “and” joins values, the source holds several entries; their conditions need not be identical. Equal values may be shown once. Read-outs that look alike come from different tables or passages of the source.

In assay [1] the target is T1, TRPV4 channel receptor (Homo sapiens, UniProt Q9HBA0). In words: Ca2+ influx in human articular chondrocytes (FlexStation). The following applies: for HAC % eff: human articular chondrocytes; for Ca Influx - FLEX (human) % effic. / Ca2+ influx: human chondrocytes.
T1 sequence (Q9HBA0 whole entry): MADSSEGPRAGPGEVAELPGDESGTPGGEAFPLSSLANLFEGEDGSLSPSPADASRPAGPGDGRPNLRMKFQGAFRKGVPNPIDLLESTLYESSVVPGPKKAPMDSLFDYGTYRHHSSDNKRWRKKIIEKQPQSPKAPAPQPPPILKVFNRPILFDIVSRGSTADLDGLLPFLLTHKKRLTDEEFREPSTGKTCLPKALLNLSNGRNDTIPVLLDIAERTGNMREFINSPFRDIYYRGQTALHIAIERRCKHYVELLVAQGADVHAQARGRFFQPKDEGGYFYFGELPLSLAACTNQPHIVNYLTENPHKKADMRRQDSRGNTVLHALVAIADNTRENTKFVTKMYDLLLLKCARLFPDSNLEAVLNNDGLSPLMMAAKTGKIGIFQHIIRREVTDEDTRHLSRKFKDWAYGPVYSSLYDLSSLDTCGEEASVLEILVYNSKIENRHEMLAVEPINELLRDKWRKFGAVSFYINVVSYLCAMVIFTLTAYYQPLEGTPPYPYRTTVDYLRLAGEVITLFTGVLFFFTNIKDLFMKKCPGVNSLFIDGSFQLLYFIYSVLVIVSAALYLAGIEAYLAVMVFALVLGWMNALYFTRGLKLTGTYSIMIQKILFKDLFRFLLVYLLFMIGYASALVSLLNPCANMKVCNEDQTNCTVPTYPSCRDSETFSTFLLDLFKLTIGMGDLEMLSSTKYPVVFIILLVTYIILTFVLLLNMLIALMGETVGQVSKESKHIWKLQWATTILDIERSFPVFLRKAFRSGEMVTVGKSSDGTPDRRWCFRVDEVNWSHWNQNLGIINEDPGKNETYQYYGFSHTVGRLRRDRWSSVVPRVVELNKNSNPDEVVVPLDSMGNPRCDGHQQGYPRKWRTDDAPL
Assay [2] has as its system bovine articular cartilage explants. Description: IL-1 induced aggrecan degradation (GAG release, DMMB) in bovine articular cartilage explants. The format is cell-based. The following applies: for IC50: IL-1-stimulated bovine cartilage. An excerpt:
Articular cartilage explants isolated from newborn calves at slaughter were placed in culture, and aggrecan degradation was initiated through stimulation with IL-1. Since aggrecan degradation in this model is believed to be mediated by aggrecanase, TRPV4 channel receptor agonists that are active in the chondrocyte-based aggrecanase peptide assay (Example 11) may also be effective inhibitors in the cartilage explant assay, presumably by blocking aggrecanase production in these tissues.
At the end of the culture period, conditioned media were assayed for glycosaminoglycan (GAG) levels by colorimetric (DMMB) assay as a measure of aggrecan degradation. In bovine explants, IL-1 induced a profound increase in the amount of GAG released into the media during the 3 day culture. When cartilage was treated with IL-1 in combination with Formula IIc, there was a concentration-dependent reduction in GAG release as shown in Table 5.

In a further assay the test system is human cartilage explants. In words: Aggrecan degradation (GAG, DMMB) in human cartilage explants. In kind it is cell-based. As to conditions: Homo sapiens; estimated; 3-point concentration response. The protocol: Because the progression of aggrecan degradation in response to IL-1 in human cartilage is slower than in bovine cartilage, culture media was removed and replaced with fresh treatments every 2-3 days for approximately 3 weeks. For each timepoint, GAG levels were measured by DMMB assay, and cumulative data released over the entire 3 week culture period was calculated.
The data represents cumulative aggrecan degradation after 21 days in culture. […] In addition, Formula IId caused a concentration-dependent reduction of IL-1-induced aggrecan degradation. […] The estimated IC50's shown in Table 7 are very similar to those IC50's calculated from IL-1-stimulated bovine cartilage.

The target of assay [3] is TRPV4 channel receptor (Rattus norvegicus, UniProt Q9ERZ8). Description: Ca2+ influx in rat articular chondrocytes (FlexStation). The following applies: for EC50: RAC EC50, rat articular chondrocytes; for EC50 / RAC % eff: N = 2; for RAC % eff: rat articular chondrocytes; for Ca2+ influx: rat chondrocytes.
TRPV4 channel receptor (Rattus norvegicus, UniProt Q9ERZ8), sequence (Q9ERZ8 whole entry): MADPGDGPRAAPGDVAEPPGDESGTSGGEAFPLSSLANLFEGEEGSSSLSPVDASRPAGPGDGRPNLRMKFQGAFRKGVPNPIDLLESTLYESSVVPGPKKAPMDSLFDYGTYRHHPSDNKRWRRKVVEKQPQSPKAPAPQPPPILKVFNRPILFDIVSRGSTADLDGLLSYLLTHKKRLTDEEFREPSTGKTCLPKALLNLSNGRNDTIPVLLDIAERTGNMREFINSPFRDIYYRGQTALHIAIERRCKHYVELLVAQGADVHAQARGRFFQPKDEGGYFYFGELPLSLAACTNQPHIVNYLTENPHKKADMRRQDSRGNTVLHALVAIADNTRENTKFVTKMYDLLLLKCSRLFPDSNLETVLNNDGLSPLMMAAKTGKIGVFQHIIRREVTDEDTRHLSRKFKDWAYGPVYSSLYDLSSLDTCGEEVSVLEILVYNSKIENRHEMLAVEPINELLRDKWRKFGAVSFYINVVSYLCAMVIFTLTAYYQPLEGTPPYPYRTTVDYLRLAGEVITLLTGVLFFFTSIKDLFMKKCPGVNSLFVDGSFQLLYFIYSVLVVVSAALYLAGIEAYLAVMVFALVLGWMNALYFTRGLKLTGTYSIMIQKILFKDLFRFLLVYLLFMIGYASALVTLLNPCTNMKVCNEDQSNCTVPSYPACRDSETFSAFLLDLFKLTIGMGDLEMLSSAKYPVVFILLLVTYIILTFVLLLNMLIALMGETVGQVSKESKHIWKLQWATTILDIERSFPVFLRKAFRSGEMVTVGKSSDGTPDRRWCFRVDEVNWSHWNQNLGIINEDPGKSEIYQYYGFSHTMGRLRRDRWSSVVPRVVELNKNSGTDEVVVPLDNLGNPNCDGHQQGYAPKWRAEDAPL
Assay [4] addresses T1, TRPV4 channel receptor. In words: FLIPR assay. In kind it is cell-based.
The next assay deals with aggrecanase. In words: IL-1 induced aggrecanase production, chondrocyte-based aggrecanase peptide cleavage assay. The format is cell-based, bovine. An excerpt: Aggrecanases (ADAMTSs), in conjunction with MMPs, degrade aggrecan, one of the major matrix components in articular cartilage. […] 2003; 48(1): 119-133].
Assay [5] deals with T2, TRPV4 channel receptor (Bos taurus, UniProt A0A8F4X677).
T2 construct: endogenous in cells; host or cells: bovine articular chondrocytes
T2 sequence (A0A8F4X677 1-871): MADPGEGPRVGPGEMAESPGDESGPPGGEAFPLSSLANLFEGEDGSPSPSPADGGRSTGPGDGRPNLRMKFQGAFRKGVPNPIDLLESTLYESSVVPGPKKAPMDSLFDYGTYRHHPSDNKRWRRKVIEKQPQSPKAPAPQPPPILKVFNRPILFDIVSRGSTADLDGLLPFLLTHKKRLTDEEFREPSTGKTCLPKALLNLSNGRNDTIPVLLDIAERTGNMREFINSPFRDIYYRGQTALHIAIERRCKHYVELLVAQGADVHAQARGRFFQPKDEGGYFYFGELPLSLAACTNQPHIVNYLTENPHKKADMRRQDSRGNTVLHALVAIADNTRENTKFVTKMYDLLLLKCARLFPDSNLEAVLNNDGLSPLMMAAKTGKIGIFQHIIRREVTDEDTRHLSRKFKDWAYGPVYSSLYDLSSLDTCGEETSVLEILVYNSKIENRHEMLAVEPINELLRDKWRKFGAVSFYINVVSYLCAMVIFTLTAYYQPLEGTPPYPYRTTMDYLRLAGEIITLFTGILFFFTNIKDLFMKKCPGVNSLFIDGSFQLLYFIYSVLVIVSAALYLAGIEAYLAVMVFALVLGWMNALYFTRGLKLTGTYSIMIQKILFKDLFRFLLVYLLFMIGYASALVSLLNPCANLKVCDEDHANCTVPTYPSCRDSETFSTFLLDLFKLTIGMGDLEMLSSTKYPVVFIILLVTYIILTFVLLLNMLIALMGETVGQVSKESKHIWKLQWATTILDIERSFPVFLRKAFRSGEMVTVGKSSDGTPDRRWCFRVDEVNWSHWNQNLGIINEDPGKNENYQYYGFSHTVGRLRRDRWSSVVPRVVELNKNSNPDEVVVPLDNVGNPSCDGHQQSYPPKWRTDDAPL
Description: Ca2+ influx in bovine articular chondrocytes (FlexStation). In kind it is cell-based.

Assay [6] has as its system bovine articular cartilage explants. Description: IL-1 induced collagen degradation (hydroxyproline) in bovine articular cartilage explants. The format is cell-based. The protocol:
IL-1 stimulates collagen degradation in bovine articular cartilage explants after extended (−2-3 weeks) exposure to IL-1. Collagen breakdown was evaluated by measuring the levels of hydroxyproline, a major component of hydrolyzed collagen fibrils, using a colorimetric assay that is understood in the art. Bovine articular cartilage was stimulated with IL-1 for 18 days, in the absence or presence of Formula Ib or Formula IId (both at 1 uM). Media was removed and replaced every 2-4 days with fresh IL-1 and compound through day 18. As has been shown previously, aggrecan degradation precedes collagen breakdown in IL-1-stimulated bovine cartilage explants. Once aggrecan depletion had been achieved by day 10, media were analyzed for collagen breakdown using the hydroxyproline assay.

The subject of a further assay is wild type HEK293 cells. Description: Intracellular calcium (FLIPR) in wild type HEK293 cells. The format is cell-based. The arrangement: key to pEC50 wild type: IA = inactive. As to conditions: for pEC50 wild type: intracellular calcium, mean ± s.e.mean, n = 3-5. The protocol:
(§1) TRPV4 channel receptor cDNA was inserted into the expression vector pcDNA3.1 V5-His (Invitrogen, Carlsbad, Calif.). Wildtype HEK293 cells, or HEK293 cells transfected with the human TRPV4 channel receptor: pcDNA3.1 V5-His construct, or mock transfected cells, or bovine chondrocytes, were seeded into 96-well microtitre plates at 25,000 cells/well and cultured overnight. The cells were then incubated with 4 μM Fluo-3 (Fluo-3: Molecular Probes (Eugene, Oreg.)) for 2 hours at room temperature in the dark. Dye loaded cells were washed 4× with Tyrodes buffer: (NaCl, 145 mM; KCl, 2.5 mM; Hepes, 10 mM; Glucose, 10 mM; MgCl2, 1.2 mM; CaCl2, 1.5 mM), which also contained 0.2% BSA but not probenecid. Agonists and antagonists were also prepared in Tyrodes buffer. Cells were preincubated for 30 minutes with antagonist or buffer. Agonist addition and measurement of cytoplasmic calcium concentration was performed in the FLIPR (Smart, et al., (2000) Br. J. Pharmacol. 129, 227-230).
In general terms: Calcium flux is commonly read through the fluorescence of an indicator in the cells.

Assay [7] addresses T1, TRPV4 channel receptor. In words: Intracellular calcium (FLIPR, Fluo-3) in HEK293 cells transfected with human TRPV4 channel receptor. The format is cell-based. The arrangement: V5-His (from the vector's name only); expressed in transfected cells; host or cells: HEK293; key to pEC50 TRPVR4: IA = inactive. As to conditions: for pEC50 TRPVR4: intracellular calcium, mean ± s.e.mean, n = 3-5. The protocol:
as §1

The target in a further assay is TRPVR1 (Homo sapiens, UniProt Q8NER1). In kind it is cell-based. The following applies: for pEC50 TRPVR1: intracellular calcium, mean ± s.e.mean, n = 3-5.
TRPVR1, sequence (Q8NER1 whole entry): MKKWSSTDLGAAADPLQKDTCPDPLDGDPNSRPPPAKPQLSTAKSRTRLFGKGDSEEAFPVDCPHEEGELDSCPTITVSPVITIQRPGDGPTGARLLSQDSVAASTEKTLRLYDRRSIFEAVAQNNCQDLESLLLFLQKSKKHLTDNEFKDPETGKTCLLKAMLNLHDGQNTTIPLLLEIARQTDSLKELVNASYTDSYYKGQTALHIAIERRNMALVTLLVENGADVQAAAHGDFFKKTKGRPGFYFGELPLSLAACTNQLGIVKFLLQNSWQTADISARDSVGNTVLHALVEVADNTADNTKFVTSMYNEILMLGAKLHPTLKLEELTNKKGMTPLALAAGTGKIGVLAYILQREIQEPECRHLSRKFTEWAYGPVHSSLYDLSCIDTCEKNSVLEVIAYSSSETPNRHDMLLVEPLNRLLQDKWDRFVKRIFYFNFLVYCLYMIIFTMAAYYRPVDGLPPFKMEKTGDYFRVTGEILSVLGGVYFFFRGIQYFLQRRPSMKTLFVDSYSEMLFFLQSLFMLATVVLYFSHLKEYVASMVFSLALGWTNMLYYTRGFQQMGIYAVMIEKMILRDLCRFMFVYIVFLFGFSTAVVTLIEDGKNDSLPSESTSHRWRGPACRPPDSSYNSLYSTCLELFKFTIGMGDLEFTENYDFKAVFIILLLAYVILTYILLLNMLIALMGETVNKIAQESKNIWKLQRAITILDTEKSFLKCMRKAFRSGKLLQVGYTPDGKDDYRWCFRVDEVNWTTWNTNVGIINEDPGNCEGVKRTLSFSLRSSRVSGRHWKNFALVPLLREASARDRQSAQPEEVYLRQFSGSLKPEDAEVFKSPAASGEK
Assay [8] deals with cells transfected with empty vector. Description: Intracellular calcium (FLIPR) in HEK293 cells transfected with empty vector. In kind it is cell-based. The arrangement: key to pEC50 empty vector: IA = inactive. As to conditions: for pEC50 empty vector: intracellular calcium, mean ± s.e.mean, n = 3-5. The protocol:
as §1

The mark [9] stands for this setting: Ca Influx - FLEX (human) EC50, human chondrocytes.
[10] abbreviates: HAC EC50, human articular chondrocytes, N = 2.
The mark [11] stands for this setting: bovine articular chondrocytes, read-out: BAC EC50.
Where [12] appears, read: bovine chondrocytes, read-out: Ca Influx - FLEX (bovine) EC50.

Take `CC(C)C[C@H](NC(=O)c1cc2ccccc2s1)C(=O)NCCCN(C)S(=O)(=O)c1ccccc1C#N` [Formula IIIb, N-{(1S)-1-[({3-[[(cyanophenyl)sulfonyl](methyl)amino]propyl}amino)carbonyl]-3-methylbutyl}-1-benzothiophene-2-carboxamide]: the EC50 at TRPV4 channel receptor [1] (setting [9]) is 280 nM; on TRPV4 channel receptor [1] (setting [10]), 240 nM and 210 nM; at TRPV4 channel receptor [3], 370 nM and 700 nM; on TRPV4 channel receptor [4] it was 700 nM; on TRPV4 channel receptor [5] (setting [11]), 260 nM; at TRPV4 channel receptor [5] (setting [12]), 290 nM. In addition, on TRPV4 channel receptor [1] (N = 2), the HAC % eff is 124% and 130%. Besides, the “Ca Influx - FLEX (human) % effic.” value on TRPV4 channel receptor [1] came to 78%. For the same compound, the IC50 in [2] (Bos taurus) was 400 nM; with human cartilage explants it was 500 nM; with aggrecanase, 350 nM; in the assay on aggrecanase (Bos taurus), 400 nM. Besides, the RAC % eff at TRPV4 channel receptor [3] was 99% and 104%. For the same compound, the BAC % eff result at TRPV4 channel receptor [5] (bovine articular chondrocytes) is recorded as “(104%)”. Also, the “Ca Influx - FLEX (bovine) % effic.” value on TRPV4 channel receptor [5] (bovine chondrocytes) was found to be 70%.
As to `CC(C)C[C@H](NC(=O)c1cc2ccccc2n1C)C(=O)N[C@@H]1CCCN(S(=O)(=O)c2ccccc2C#N)CC1` [Formula Ib, N-{(1S)-1-[({(4R)-1-[(2-cyanophenyl)sulfonyl]hexahydro-1H-azepin-4-yl}amino)carbonyl]-3-methylbutyl}-methyl-1H-indole-2-carboxamide], the half-maximal effective concentration (EC50) at TRPV4 channel receptor [1] (setting [9]) was 260 nM; at TRPV4 channel receptor [5] (setting [12]), 280 nM. Besides, the “Ca Influx - FLEX (human) % effic.” value on TRPV4 channel receptor [1] worked out at 133%. In addition, the half-maximal inhibitory concentration (IC50) is 200 nM in assay [2] (Bos taurus), 300 nM in the assay on human cartilage explants and 600 nM in the assay with aggrecanase (Bos taurus). Also, the “Hydroxyproline Mean ± SEM” value in assay [6] (1 uM, IL-1 50 ng/ml, media from day 14-18) was 6 ± 2 µg. Also, the inhibition at 1 µM in [6] (Bos taurus, 336 h, 1 uM, IL-1 50 ng/ml, media from day 14-18) came to 95%. Further, at TRPV4 channel receptor [5] (bovine chondrocytes), the “Ca Influx - FLEX (bovine) % effic.” value is reported as 119%.
With `COc1ccc(S(=O)(=O)N(Cc2cccnc2)[C@@H](C(=O)NO)C(C)C)cc1` [CGS-27023A, reference compound], in assay [6], the “block of IL-1-induced collagen degradation” value was “completely blocked”.
Take `CCCCCCCCCCCCCC(=O)O[C@@H]1[C@@H](C)[C@@]2(O)[C@@H](C=C(CO)C[C@]3(O)C(=O)C(C)=C[C@@H]23)[C@@H]2C(C)(C)[C@]12OC(C)=O` [PMA, phorbol 12-myristate 13-acetate]: at TRPV4 channel receptor [1], the “Ca2+ influx” value is given as “no change in Ca^2+ influx”. In the assay with wild type HEK293 cells, the “effect on intracellular calcium in wild type HEK293 cells” value was “without effect” and the pEC50 wild type entry is “IA”. For the same compound, on TRPV4 channel receptor [7], the “intracellular calcium in HEK293-TRPV4 channel receptor cells” value was “increased intracellular calcium” and the “pEC50 TRPVR4” value is recorded as 6.64 ± 0.06. Besides, the “Ca2+ influx” value on TRPV4 channel receptor [3] was “no change in Ca^2+ influx”. Besides, at TRPVR1, the “activation of VR1” value is on record as “activated VR1” and the “pEC50 TRPVR1” value stood at 7.86 ± 0.06. Moreover, the “Emax at VR1” value on TRPVR1 (compared to capsaicin and RTX) turned out to be 0.46. Also, in assay [8], the “effect on intracellular calcium in cells transfected with empty vector” value was “without effect” and the pEC50 empty vector entry is reported as “IA”. The “Ca2+ influx” value at TRPV4 channel receptor [5] (bovine chondrocytes) is “no change in Ca^2+ influx”.
As for `CC(C)C[C@H](NC(=O)c1cc2ccccc2s1)C(=O)N[C@@H]1CCCN(S(=O)(=O)c2ccc(Cl)cc2)CC1=O` [Formula IIc, N-{(1S)-1-[({(4R)-1-[(4-chlorophenyl)sulfonyl]-3-oxohexahydro-1H-azepin-4-yl}amino)carbonyl]-3-methylbutyl}-1-benzothiophene-2-carboxamide], the “GAG release Mean ± SEM” value in [2] (0.01 μM, IL-1 100 ng/ml, 3 days) is on record as 62 ± 4.82 μg/explant; in [2] (0.03 μM, IL-1 100 ng/ml, 3 days), 59 ± 4.62 μg/explant; in [2] (0.10 μM, IL-1 100 ng/ml, 3 days) it was 43 ± 3.18 μg/explant; in assay [2] (1.00 μM, IL-1 100 ng/ml, 3 days), 14 ± 1.44 μg/explant. Besides, the inhibition at 0.01 µM in [2] (Bos taurus, 72 h, 0.01 μM, IL-1 100 ng/ml, 3 days) was -2%. Also, in [2] (Bos taurus, 72 h, 0.03 μM, IL-1 100 ng/ml, 3 days), the inhibition at 0.03 µM was 4%. In assay [2] (Bos taurus, 72 h, 0.10 μM, IL-1 100 ng/ml, 3 days), the inhibition at 0.1 µM is 38%. Besides, the inhibition at 1 µM in assay [2] (Bos taurus, 72 h, 1.00 μM, IL-1 100 ng/ml, 3 days) is 98%. Besides, the “inhibition of aggrecan degradation” value in assay [2] (IL-1 stimulation for 12 or 21 days) is listed as “Significant inhibition”.
For the compound `CC(C)C[C@H](NC(=O)c1cc2ccccc2s1)C(=O)NCCCN(C)S(=O)(=O)c1ccc(Cl)cc1Cl` [Formula IIIc, N-{(1S)-1-[({3-[[(2,4-dichlorophenyl)sulfonyl](methyl)amino]propyl}amino)carbonyl]-3-methylbutyl}-1-benzothiophene-2-carboxamide], the 50% effective concentration (EC50) turned out to be 250 nM on TRPV4 channel receptor [1] (setting [10]), 140 nM at TRPV4 channel receptor [3], 370 nM on TRPV4 channel receptor [4] and 310 nM at TRPV4 channel receptor [5] (setting [11]). The compound further came in with an HAC % eff on TRPV4 channel receptor [1] (N = 2) of 127%. This compound showed an RAC % eff at TRPV4 channel receptor [3] of 70%. Moreover, the 50% inhibitory concentration (IC50) with aggrecanase (Bos taurus) came to 40 nM. The BAC % eff entry at TRPV4 channel receptor [5] (bovine articular chondrocytes) is listed as “(94%)”.
Turning to `COc1cc(CNC(=O)CCCC/C=C/C(C)C)ccc1O` [capsaicin, reference compound], the “Ca2+ influx” value on TRPV4 channel receptor [1], at TRPV4 channel receptor [3] and at TRPV4 channel receptor [5] (bovine chondrocytes) was “no change in Ca^2+ influx” each time. The pEC50 wild type entry with wild type HEK293 cells was “IA”. On TRPV4 channel receptor [7], the “pEC50 TRPVR4” value was “IA”. The pEC50 empty vector result in assay [8] is reported as “IA”.
On to `C=C(C)[C@]12C[C@@H](C)[C@@]34O[C@](Cc5ccccc5)(O[C@@H]1[C@@H]3C=C(COC(=O)Cc1ccc(O)c(OC)c1)C[C@]1(O)C(=O)C(C)=C[C@@H]41)O2` [RTX], for which the pEC50 wild type entry with wild type HEK293 cells is “IA”. The “pEC50 TRPVR4” value at TRPV4 channel receptor [7] was “IA”. The “pEC50 TRPVR1” value at TRPVR1 is 8.93 ± 0.20. For the same compound, the pEC50 empty vector result in [8] is “IA”.

Usually EC50 stands for the concentration needed to bring the measured effect to its halfway point. The term IC50 denotes the concentration that gives 50% inhibition. As usually defined, the inhibition is the change of the read-out against control, counted positive when it falls.
